According to the supplement of paper PMC9938120:

Legend:
Assay in all cases: drug sensitivity score (DSS3, normalised partial AUC of % inhibition dose-response) (DSS (score)); higher = more sensitive (stronger inhibition of viability); extreme values may be limits of the assay
[1] = system: FMOC02_1 (patient-derived low-grade serous ovarian cancer cells); settings: 72 h; library: FO5A; assay format: 2D, 384-well, CellTiter-Glo
Summary of the method: (§1)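 On 384-well flat clear-bottom plates carrying compounds at five concentrations across a 10,000-fold range, patient-derived ovarian cancer cells below passage 10 were incubated for 72 h at 37 °C with 5% CO2. CellTiter-Glo readout of viability was processed in Breeze. A higher drug sensitivity score, defined as the partial area under the percent-inhibition dose-response curve divided by the log of the upper asymptote, means greater sensitivity.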

[2] = system: FMOC02_2 (patient-derived low-grade serous ovarian cancer cells); settings: 72 h; library: FO5A; assay format: 2D, 384-well, CellTiter-Glo
Summary of the method: as §1

[3] = system: FMOC02_3 (patient-derived low-grade serous ovarian cancer cells); settings: 72 h; library: FO5A; assay format: 2D, 384-well, CellTiter-Glo
Summary of the method: as §1

[4] = system: FMOC03 (patient-derived mucinous ovarian cancer cells); settings: 72 h; library: FO5A; assay format: 2D, 384-well, CellTiter-Glo
Summary of the method: as §1

[5] = system: FMOC04 (patient-derived high-grade serous ovarian cancer cells); settings: 72 h; library: FO5A; assay format: 2D, 384-well, CellTiter-Glo
Summary of the method: as §1

[6] = system: FMOC06 (patient-derived mucinous ovarian cancer cells); settings: 72 h; library: FO5A; assay format: 2D, 384-well, CellTiter-Glo
Summary of the method: as §1

[7] = system: FMOC09 (patient-derived high-grade serous ovarian cancer cells); settings: 72 h; library: FO5A; assay format: 2D, 384-well, CellTiter-Glo
Summary of the method: as §1

[8] = system: FMOC11 (patient-derived high-grade serous ovarian cancer cells); settings: 72 h; library: FO5A; assay format: 2D, 384-well, CellTiter-Glo
Summary of the method: as §1

[9] = system: FMOC14 (patient-derived high-grade serous ovarian cancer cells); settings: 72 h; library: FO5A; assay format: 2D, 384-well, CellTiter-Glo
Summary of the method: as §1

[10] = system: FMOC17 (patient-derived low-grade serous ovarian cancer cells); settings: 72 h; library: FO5A; assay format: 2D, 384-well, CellTiter-Glo
Summary of the method: as §1

[11] = system: FMOC22 (patient-derived mucinous ovarian cancer cells); settings: 72 h; library: FO5A; assay format: 2D, 384-well, CellTiter-Glo
Summary of the method: as §1

[12] = system: FMOC24 (patient-derived high-grade serous ovarian cancer cells); settings: 72 h; library: FO5A; assay format: 2D, 384-well, CellTiter-Glo
Summary of the method: as §1

[13] = system: FMOC25_1 (patient-derived low-grade serous ovarian cancer cells); settings: 72 h; library: FO4B; assay format: 2D, 384-well, CellTiter-Glo
Summary of the method: as §1

[14] = system: FMOC25_2 (patient-derived low-grade serous ovarian cancer cells); settings: 72 h; library: FO5A; assay format: 2D, 384-well, CellTiter-Glo
Summary of the method: as §1

[15] = system: FMOC27 (patient-derived low-grade serous ovarian cancer cells); settings: 72 h; library: FO5A; assay format: 2D, 384-well, CellTiter-Glo
Summary of the method: as §1

[16] = system: FMOC28 (patient-derived low-grade serous ovarian cancer cells); settings: 72 h; library: FO5A; assay format: 2D, 384-well, CellTiter-Glo
Summary of the method: as §1

| Structure (SMILES) | drug sensitivity score [1] | drug sensitivity score [2] | drug sensitivity score [3] | drug sensitivity score [4] | drug sensitivity score [5] | drug sensitivity score [6] | drug sensitivity score [7] | drug sensitivity score [8] | drug sensitivity score [9] | drug sensitivity score [10] | drug sensitivity score [11] | drug sensitivity score [12] | drug sensitivity score [13] | drug sensitivity score [14] | drug sensitivity score [15] | drug sensitivity score [16] |
| --- | --- | --- | --- | --- | --- | --- | --- | --- | --- | --- | --- | --- | --- | --- | --- | --- |
| OC[C@H]1O[C@@H](n2cnc3c2N=CNC[C@H]3O)C[C@@H]1O [Pentostatin] | 0 | 0 | 0 | 0 | 0 | 0 | 0 | 0 | 0 | 0 | 0 | 0 | 0 | 0 | 0 | 0 |
| CCCCCCCCCCCCCCCCCCOP(=O)([O-])OC1CC[N+](C)(C)CC1 [Perifosine] | 0 | 0 | 0 | 0 | 0 | 0.1 | 0 | 0 | 0 | 0 | 0 | 3.35 | 0 | 0.5 | 0 | 0 |
| FC(F)(F)c1ccc(CNc2ccc(Cc3c[nH]c4ncc(Cl)cc34)cn2)cn1 [Pexidartinib] | 3.9 | 2.5 | 3.1 | 0 | 0.1 | 0.9 | 4.1 | 2.6 | 0 | 1.4 | 0.3 | 1.3 | 1.6 | 0 | 0 | 0.1 |
| CC[C@@H]1C(=O)OC[C@@H]1Cc1cncn1C [Pilocarpine] | 0 | 0.3 | 0 | 0 | 0 | 0 | 0 | 0 | 0 | 0 | 0 | 2.65 | 0 | 0 | 0 | 0 |
| CC(C)N(C[C@H]1O[C@@H](n2cnc3c(N)ncnc32)[C@H](O)[C@@H]1O)[C@H]1C[C@@H](CCc2nc3cc(C(C)(C)C)ccc3[nH]2)C1 [Pinometostat] | 0 | 0 | 0 | 0 | 0 | 0 | 0 | 0 | 0 | 0 | 0 | 0 | 0 | 0.2 | 0 | 2.1 |
| NCCNc1ccc(NCCN)c2c1C(=O)c1ccncc1C2=O [Pixantrone] | 0 | 0 | 1.5 | 0 | 0.2 | 0 | 0 | 1.7 | 0 | 0.9 | 0 | 0 | 0.7 | 1.8 | 0 | 1.6 |
| c1cc(CN2CCCNCCNCCCNCC2)ccc1CN1CCCNCCNCCCNCC1 [Plerixafor] | 0 | 0 | 0 | 0 | 0 | 0 | 0 | 0 | 0 | 0 | 0 | 0 | 0 | 0 | 0 | 0 |
| Nc1cccc2c1C(=O)N(C1CCC(=O)NC1=O)C2=O (stereo unspecified) [Pomalidomide] | 0 | 0 | 0 | 0 | 0 | 0 | 0 | 0 | 0 | 0 | 0 | 0 | 0 | 0 | 0 | 0 |
| CC[C@H](C)C(=O)O[C@H]1C[C@H](O)C=C2C=C[C@H](C)[C@H](CC[C@@H](O)C[C@@H](O)CC(=O)O)[C@H]21 [Pravastatin] | 0 | 0 | 0 | 0 | 0 | 0.8 | 0 | 0 | 0 | 0 | 0 | 0.35 | 0 | 0 | 0 | 0 |
| C[C@]12C=CC(=O)C=C1CC[C@@H]1[C@@H]2[C@@H](O)C[C@@]2(C)[C@H]1CC[C@]2(O)C(=O)CO [Prednisolone] | 0.1 | 0 | 0 | 0 | 0 | 0.7 | 0 | 0 | 0 | 0 | 0 | 0.65 | 0 | 0 | 0 | 0 |
| CC(C)(C)c1cc(NC(=O)Nc2ccc(-c3cn4c(n3)sc3cc(OCCN5CCOCC5)ccc34)cc2)no1 [Quizartinib] | 2 | 0.7 | 0.6 | 0.8 | 0.45 | 0.3 | 0 | 0 | 0 | 1 | 0 | 3.85 | 0.7 | 0.6 | 0.5 | 0.3 |
